The test system of one assay is S. typhimurium CVCC533. It is filed as cell-based, Salmonella typhimurium. The procedure:
(§1) The minimum inhibitory concentration (MIC) and minimum bactericidal concentration (MBC) of peptides were determined by the microtiter broth dilution method according to Clinical and Laboratory Standards Institute (CLSI) guidelines. […] PBS was used as the negative control. […] The MBC value was calculated as the lowest concentration of peptides resulting in a 99.9% reduction of the original inoculum. All experiments were repeated three times.

The test system of the next assay is S. aureus CVCC546. It is filed as cell-based, Staphylococcus aureus. The method, then: as §1
The subject of assay [1] is E. coli, S. typhimurium and S. aureus. It is filed as cell-based. The settings on record: 18 h. The method, then: as §1
The subject of a further assay is Escherichia coli CVCC195. It is filed as cell-based. The method, then: as §1
Assay [2] has as its system Staphylococcus aureus ATCC43300. Type of assay: cell-based. The settings on record: ATCC43300, 18 h. The method, then:
as §1

In another assay the test system is E. coli 0111: B4 LPS. Description: BC (BODIPY-TR-cadaverine) displacement assay, binding to LPS. On the set-up: species or system Escherichia coli; unit not given here. To be noted: Fig. 4a source data, mean. The method, then:
The binding of peptides to LPS was determined according to the method described previously[34],[59]. In brief, E. coli 0111: B4 LPS (40 μg/mL) and BODIPY-TR-cadaverine (BC) (10 μM) were mixed in 50 mM Tris buffer (pH = 7.4) in equal proportions and added to a 96-well black plate (180 μL/well) in the dark. Different concentrations of chimeric peptide R7 and its parental (20 μL) were added into each well and detected by a fluorescence spectrophotometry at room temperature (excitation wavelength 580 nm, emission wavelength 620 nm). The change in relative fluorescence was recorded and the BC displacement rate was calculated. Polymycin B (PMB) was used as the positive control.

Setting [3] is: lowest concentration giving 99.9% reduction of the inoculum, repeated three times.
The mark [4] stands for this setting: microtiter broth dilution, 10^5 CFU/mL, 37 °C, 16 ~ 18 h, repeated three times.

Converted amounts (≈) assume the structure as drawn. Where two headings read alike, the source gives them in different places. Residues, ends and D or L forms follow the SMILES beside them. No end group written: not given here.

Regarding `CSCC[C@H](NC(=O)[C@H](CCCNC(=N)N)NC(=O)[C@H](Cc1c[nH]c2ccccc12)NC(=O)[C@H](C)NC(=O)[C@H](Cc1c[nH]c2ccccc12)NC(=O)[C@H](CCCNC(=N)N)NC(=O)[C@H](Cc1c[nH]c2ccccc12)NC(=O)[C@H](C)NC(=O)[C@H](CCCCN)NC(=O)[C@H](Cc1ccccc1)NC(=O)[C@H](CO)NC(=O)CNC(=O)CNC(=O)CNC(=O)CNC(=O)[C@H](CCCCN)NC(=O)[C@H](Cc1ccccc1)NC(=O)[C@H](Cc1ccccc1)NC(=O)[C@H](CO)NC(=O)[C@H](C)NC(=O)[C@H](CCCNC(=N)N)NC(=O)[C@@H](NC(=O)[C@H](CCCCN)NC(=O)[C@H](Cc1c[nH]c2ccccc12)NC(=O)[C@H](CCCNC(=N)N)NC(=O)CNC(=O)[C@H](CCC(N)=O)NC(=O)[C@@H](NC(=O)[C@@H](N)CCCNC(=N)N)C(C)C)C(C)C)C(=O)N[C@@H](CCCCN)C(=O)N[C@@H](CCCCN)C(=O)N[C@@H](CC(C)C)C(=O)N[C@@H](C)C(=O)N[C@@H](C)C(=O)N1CCC[C@H]1C(=O)N[C@@H](CO)C(=O)O` [G7] (H-RVQGRWKVRASFFKGGGGSFKAWRWAWRMKKLAAPS-OH), the MIC with S. typhimurium CVCC533 (CVCC533, 18 h) was more than 36.2 µM; in the assay on S. aureus CVCC546 (CVCC546, 18 h), more than 36.2 µM; in the assay on Escherichia coli CVCC195 (CVCC195, 18 h) it was 18.1 µM (≈ 75.9 µg/mL); in assay [2], more than 36.2 µM. Further, the minimum bactericidal concentration (MBC) is more than 36.2 µM against S. aureus CVCC546 (CVCC546, 18 h); 18.1 µM (≈ 75.9 µg/mL) with Escherichia coli CVCC195 (CVCC195, 18 h); more than 36.2 µM in assay [2]. The “antibacterial activity (MIC)” value in assay [1] is not below 18.1 µM.
Regarding `CC(C)[C@H](NC(=O)[C@H](CCCCN)NC(=O)[C@H](Cc1c[nH]c2ccccc12)NC(=O)[C@H](CCCNC(=N)N)NC(=O)CNC(=O)[C@H](CCC(N)=O)NC(=O)[C@@H](NC(=O)[C@@H](N)CCCNC(=N)N)C(C)C)C(=O)N[C@@H](CCCNC(=N)N)C(=O)N[C@@H](C)C(=O)N[C@@H](CO)C(=O)N[C@@H](Cc1ccccc1)C(=O)N[C@@H](Cc1ccccc1)C(=O)N[C@@H](CCCCN)C(=O)O` [LBP14, reference compound] (H-RVQGRWKVRASFFK-OH), the minimal bactericidal concentration (MBC) was 18.1 µM (≈ 31.9 µg/mL) against S. typhimurium CVCC533 (CVCC533, 18 h); more than 36.2 µM against S. aureus CVCC546 (CVCC546, 18 h); 4.53 µM (≈ 8 µg/mL) against Escherichia coli CVCC195 (CVCC195, 18 h); 36.2 µM (≈ 63.9 µg/mL) in assay [2]. The minimal inhibitory concentration (MIC) came to 18.1 µM (≈ 31.9 µg/mL) with S. typhimurium CVCC533 (CVCC533, 18 h); 36.2 µM (≈ 63.9 µg/mL) in the assay on S. aureus CVCC546 (CVCC546, 18 h); 4.53 µM (≈ 8 µg/mL) in the assay with Escherichia coli CVCC195 (CVCC195, 18 h); 36.2 µM (≈ 63.9 µg/mL) in assay [2].
For the molecule `CC(C)[C@H](NC(=O)[C@H](CCCCN)NC(=O)[C@H](Cc1c[nH]c2ccccc12)NC(=O)[C@H](CCCNC(=N)N)NC(=O)CNC(=O)[C@H](CCC(N)=O)NC(=O)[C@@H](NC(=O)[C@@H](N)CCCNC(=N)N)C(C)C)C(=O)N[C@@H](CCCNC(=N)N)C(=O)N[C@@H](C)C(=O)N[C@@H](CO)C(=O)N[C@@H](Cc1ccccc1)C(=O)N[C@@H](Cc1ccccc1)C(=O)N[C@@H](CCCCN)C(=O)N[C@@H](CCCNC(=N)N)C(=O)N[C@@H](CCCCN)C(=O)N[C@@H](CCCNC(=N)N)C(=O)N[C@@H](CCCNC(=N)N)C(=O)O` [LBP14-RKRR] (H-RVQGRWKVRASFFKRKRR-OH), the minimum inhibitory concentration (MIC) in the assay with S. typhimurium CVCC533 (CVCC533, 18 h) was found to be 4.53 µM (≈ 10.7 µg/mL); against S. aureus CVCC546 (CVCC546, 18 h), 9.06 µM (≈ 21.4 µg/mL); against Escherichia coli CVCC195 (CVCC195, 18 h), 2.26 µM (≈ 5.34 µg/mL); in assay [2], 4.53 µM (≈ 10.7 µg/mL). The minimal bactericidal concentration (MBC) in the assay on S. aureus CVCC546 (CVCC546, 18 h) was determined as 9.06 µM (≈ 21.4 µg/mL); with Escherichia coli CVCC195 (CVCC195, 18 h) it was 2.26 µM (≈ 5.34 µg/mL).
`CC(C)[C@H](NC(=O)[C@H](CCCCN)NC(=O)[C@H](Cc1c[nH]c2ccccc12)NC(=O)[C@H](CCCNC(=N)N)NC(=O)CNC(=O)[C@H](CCC(N)=O)NC(=O)[C@@H](NC(=O)[C@@H](N)CCCNC(=N)N)C(C)C)C(=O)N[C@@H](CCCNC(=N)N)C(=O)N[C@@H](C)C(=O)N[C@@H](CO)C(=O)N[C@@H](Cc1ccccc1)C(=O)N[C@@H](Cc1ccccc1)C(=O)N[C@@H](CCCCN)C(=O)N[C@@H](CCCNC(=N)N)C(=O)N[C@@H](CCCCN)C(=O)N[C@@H](CCCNC(=N)N)C(=O)O` [LBP14-RKR] (H-RVQGRWKVRASFFKRKR-OH): the minimal inhibitory concentration (MIC) was 4.53 µM (≈ 9.99 µg/mL) against S. typhimurium CVCC533 (CVCC533, 18 h); 9.06 µM (≈ 20 µg/mL) in the assay with S. aureus CVCC546 (CVCC546, 18 h); 2.26 µM (≈ 4.98 µg/mL) with Escherichia coli CVCC195 (CVCC195, 18 h); 4.53 µM (≈ 9.99 µg/mL) in assay [2].
As to `CSCC[C@H](NC(=O)[C@H](CCCNC(=N)N)NC(=O)[C@H](Cc1c[nH]c2ccccc12)NC(=O)[C@H](C)NC(=O)[C@H](Cc1c[nH]c2ccccc12)NC(=O)[C@H](CCCNC(=N)N)NC(=O)[C@H](Cc1c[nH]c2ccccc12)NC(=O)[C@H](C)NC(=O)[C@H](CCCCN)NC(=O)[C@H](Cc1ccccc1)NC(=O)[C@@H](N)CCCNC(=N)N)C(=O)N[C@@H](CCCCN)C(=O)N[C@@H](CCCCN)C(=O)N[C@@H](CC(C)C)C(=O)N[C@@H](C)C(=O)N[C@@H](C)C(=O)N1CCC[C@H]1C(=O)N[C@@H](CO)C(=O)O` [R-L7] (H-RFKAWRWAWRMKKLAAPS-OH), the minimal inhibitory concentration (MIC) with S. typhimurium CVCC533 (CVCC533, 18 h) is 18.1 µM (≈ 41.4 µg/mL); against S. aureus CVCC546 (CVCC546, 18 h), 18.1 µM (≈ 41.4 µg/mL); against Escherichia coli CVCC195 (CVCC195, 18 h), 2.26 µM (≈ 5.17 µg/mL); in assay [2], 18.1 µM (≈ 41.4 µg/mL).
For the molecule “RVQGRWKVRASFFKEAAAKEAAAKFKAWRWAWRMKKLAAPS [A7]”, the minimal bactericidal concentration (MBC) with S. typhimurium CVCC533 (CVCC533, 18 h) was more than 36.2 µM; against S. aureus CVCC546 (CVCC546, 18 h), more than 36.2 µM; with Escherichia coli CVCC195 (CVCC195, 18 h) it was 36.2 µM; in assay [2], more than 36.2 µM. Besides, the MIC with S. typhimurium CVCC533 (CVCC533, 18 h) is more than 36.2 µM; against S. aureus CVCC546 (CVCC546, 18 h), more than 36.2 µM; against Escherichia coli CVCC195 (CVCC195, 18 h), 36.2 µM; in assay [2], more than 36.2 µM. For the same molecule, the “antibacterial activity (MIC)” value in assay [1] was not below 18.1 µM.
In the case of polymyxin B [PMB, reference compound], the MBC in the assay on S. typhimurium CVCC533 (setting [3]) is 8 µM; in the assay with S. aureus CVCC546 (setting [3]) it was more than 64 µM; against Escherichia coli CVCC195 (setting [3]), 1 µM. For the same molecule, the MIC in the assay with S. typhimurium CVCC533 (setting [4]) is 8 µM; with S. aureus CVCC546 (setting [4]), more than 64 µM; in the assay with Escherichia coli CVCC195 (setting [4]), 1 µM. In addition, the “binding affinity to LPS” value was determined as 10.8258 in the assay with E. coli 0111: B4 LPS (peptide concentration 0.05 μM); 13.138 in the assay on E. coli 0111: B4 LPS (peptide concentration 0.1 μM); 19.3303 in the assay with E. coli 0111: B4 LPS (peptide concentration 0.5 μM); 24.2435 with E. coli 0111: B4 LPS (peptide concentration 1 μM); 53.9917 in the assay on E. coli 0111: B4 LPS (peptide concentration 5 μM); 65.3662 in the assay on E. coli 0111: B4 LPS (peptide concentration 10 μM). The “binding affinity to LPS” value worked out at 89.1421 with E. coli 0111: B4 LPS (peptide concentration 50 μM) and 85.6684 in the assay with E. coli 0111: B4 LPS (peptide concentration 100 μM).
